PMC11811597, “Phenomics‐Based Discovery of Novel Orthosteric Choline Kinase Inhibitors” (Angewandte Chemie (International Ed. in English), 2025)

Assays:
Assay type in all cases: binding
[1] = molecular target: T1, EHMT1 (GLP) (Homo sapiens, UniProt Q9H9B1); test: Competitive affinity-based chemoproteomics (UNC0965 matrix), MCF7 lysate; settings: MCF7 lysates, 20 μM competitor
T1 construct: endogenous in cells; host or cells: MCF7 whole cell lysate
Procedure: (§1) A-366 and UNC0638 were purchased from Tocris. ARIAD and V-11-07-11 were purchased from Wuxi Apptec. UNC0737 and UNC0965 were synthesised as previously described.[1] […]
(§2) #35050061). Cells were maintained at 37 °C in a humidified 5% CO2 atmosphere. […]
(§3) Chemical Proteomics Drug Pulldown
(§4) For lysate generation MCF7 cells were grown until approximately 80% confluency before being pelleted and washed with PBS. Cell pellets were subsequently lysed by addition of Buffer A (50 mM Tris pH 7.5, 0. 8% v/v NP-40, 5% v/v glycerol, 1.5 mM MgCl2, 100 mM NaCl, 25 mM NaF, 1 mM Na3VO4, 1 mM PMSF, 1 mM DTT, 10 μg mL−1 TLCK, 1 μg mL−1 Leupeptin, 1 μg mL−1 Aprotinin, 1 μg mL−1 soy bean trypsin) as previously described.[2]
(§5) For each pulldown condition, UNC0965 was coupled to 100 μL of UltraLink Immobilized Streptavidin Plus bead slurry (50% in isopropanol, GE Healthcare) to generate the affinity matrix as previously […]
(§6) described.[2] Lysates were precleared with bead slurry (100 μL) for 30 min at 4 °C and then treated with UNC0638 or UNC0737 (20 μM) or DMSO control for 30 min at 4 °C followed by incubation with affinity matrix for 2 h at 4 °C. Affinity matrices were washed with buffer A (5 mL) and proteins eluted with 100 μL of 2x Laemmli sample buffer, 100 mM DTT, in PBS and heating for 10 min at 90 °C.
(§7) Eluents (70 µL) were diluted in 0.1 M Tris (pH 7.8) to 200 µL, reduced with 5 mM DTT for 30 min at RT, and alkylated with 20 mM iodoacetamide for 30 min at RT in the dark. Proteins were precipitated by sequential addition of MeOH (600 µL), CHCl3 (150 µL) and H2O (450 µL), pelleted (17,000 × g, 5 min), washed with further MeOH (2 × 600 µL), and re-pelleted. Air dried pellets were resuspended in 50 μL 6 M urea (pH 7.8) by vortexing and then diluted with 250 μL H2O before adding 1 µg trypsin for overnight incubation at 37 °C. The digests were acidified with FA (1% v/v final concentration), desalted using SOLA HRP SPE Cartridges (Thermo Fisher), eluted with 69% v/v MeCN, 0.1% v/v FA in H2O (600 μL) and dried in vacuo. Dried peptides were stored at -20 °C before resuspension in 2% v/v MeCN, 0.1% v/v FA in H2O (20 μL) for LC-MS/MS analysis.
(§8) LC-MS/MS Data Acquisition
(§9) Digested samples were analysed by nano-UPLC–MS/MS using a Dionex Ultimate 3000 nano UPLC fitted with an EASY spray column (75 μm × 500 mm, 2 μm particle size, Thermo Scientific), coupled to an Orbitrap Q Exactive instrument. A 60 min gradient of 0.1% (v/v) formic acid in 5 % (v/v) DMSO to 0.1% (v/v) formic acid with 35% (v/v) acetonitrile in 5 % (v/v) DMSO at a flow rate of 250 nL min−1 was used. The instrument was operated in a data-dependant mode, with survey scans acquired at a resolution of 70,000 at 200 m/z and the 15 most abundant precursors selected for HCD fragmentation with an AGC target of […] ions.
(§10) Raw data was processed using MaxQuant[3] version 2.0.1.0 and the reference complete human proteome FASTA file (UniProt, downloaded 05.08.21). Label Free Quantification (LFQ) and Match Between Runs were selected; Cysteine carbamidomethylation was selected as a fixed modification, and methionine oxidation and asparagine deamidation as variable modifications. Default settings for identification and quantification were used. Specifically, a minimum peptide length of 7, a maximum of 2 missed cleavage sites, and a maximum of 5 labelled amino acids per peptide were allowed.
(§11) Through selection of the ‘trypsin/P’ general setting, peptide bond cleavage at arginine or lysine (followed by any amino acid) was considered during in silico digest of the reference proteome. The allowed precursor and fragment ion mass tolerances were 4.5 ppm and 20 ppm, respectively. Peptides and proteins were identified utilizing a 0.01 false discovery rate, with “unique and razor peptides” […]
(§12) mode selected for both identification and quantification of proteins (razor peptides are uniquely assigned to protein groups and not to individual proteins). At least 1 razor + unique peptides were required for valid quantification. […]

[2] = molecular target: T2, PRCP (Homo sapiens, UniProt P42785); test: as above; settings: 20 μM competitor, n=2
T2 construct: endogenous in cells; host or cells: MCF7 whole cell lysate
Procedure: as §1, §2, §3, §4, §5, §6, §7, §8, §9, §10, §11, §12

[3] = molecular target: T3, TUBD1 (Homo sapiens, UniProt Q9UJT1); test: as above; settings: 20 μM competitor, n=2
T3 construct: endogenous in cells; host or cells: MCF7 whole cell lysate
Procedure: as §1, §2, §3, §4, §5, §6, §7, §8, §9, §10, §11, §12

[4] = molecular target: T4, CPSF6 (Homo sapiens, UniProt Q16630); test: Competitive affinity-based chemoproteomics (UNC0965 matrix), PBMC cell extract; settings: 20 µM competitor, n=2
T4 construct: endogenous in cells; host or cells: PBMC from healthy blood donors, cell extract
Procedure: as §6, §7, §8, §9, §10, §11
(§13) mode selected for both identification and quantification of proteins (razor peptides are uniquely assigned to protein groups and not to individual proteins).

[5] = molecular target: T5, JUP (Homo sapiens, UniProt P14923); test: as above; settings: 20 µM competitor, n=2
T5 construct: endogenous in cells; host or cells: PBMC from healthy blood donors, cell extract
Procedure: as §6, §7, §8, §9, §10, §11, §13

T4 sequence (Q16630 whole entry): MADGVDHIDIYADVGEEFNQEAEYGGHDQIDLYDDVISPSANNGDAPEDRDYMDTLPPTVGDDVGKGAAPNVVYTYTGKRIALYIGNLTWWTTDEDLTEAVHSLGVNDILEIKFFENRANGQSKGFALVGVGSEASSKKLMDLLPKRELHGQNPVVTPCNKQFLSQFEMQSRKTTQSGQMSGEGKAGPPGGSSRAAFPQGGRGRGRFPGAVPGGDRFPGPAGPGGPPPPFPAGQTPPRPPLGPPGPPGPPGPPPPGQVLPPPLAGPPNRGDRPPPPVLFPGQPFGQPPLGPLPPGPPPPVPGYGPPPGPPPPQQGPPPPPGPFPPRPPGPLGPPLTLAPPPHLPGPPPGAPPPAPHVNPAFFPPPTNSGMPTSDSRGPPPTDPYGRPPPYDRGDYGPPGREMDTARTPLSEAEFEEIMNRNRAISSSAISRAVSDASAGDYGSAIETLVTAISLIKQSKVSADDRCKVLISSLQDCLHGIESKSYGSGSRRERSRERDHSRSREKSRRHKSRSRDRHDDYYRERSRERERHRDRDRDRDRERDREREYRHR
T2 sequence (P42785 46-496): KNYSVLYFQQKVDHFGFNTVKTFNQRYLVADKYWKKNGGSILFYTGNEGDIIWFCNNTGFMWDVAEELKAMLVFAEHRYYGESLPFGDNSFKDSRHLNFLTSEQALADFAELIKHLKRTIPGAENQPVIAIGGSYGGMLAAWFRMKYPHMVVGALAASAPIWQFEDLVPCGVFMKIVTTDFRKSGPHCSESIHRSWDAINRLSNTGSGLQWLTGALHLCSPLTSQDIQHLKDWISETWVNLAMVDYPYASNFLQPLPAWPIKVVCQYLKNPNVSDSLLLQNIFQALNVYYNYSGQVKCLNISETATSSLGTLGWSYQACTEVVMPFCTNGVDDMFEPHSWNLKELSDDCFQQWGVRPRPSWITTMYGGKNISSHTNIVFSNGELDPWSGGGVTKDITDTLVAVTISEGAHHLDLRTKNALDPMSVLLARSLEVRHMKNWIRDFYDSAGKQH
T3 sequence (Q9UJT1 whole entry): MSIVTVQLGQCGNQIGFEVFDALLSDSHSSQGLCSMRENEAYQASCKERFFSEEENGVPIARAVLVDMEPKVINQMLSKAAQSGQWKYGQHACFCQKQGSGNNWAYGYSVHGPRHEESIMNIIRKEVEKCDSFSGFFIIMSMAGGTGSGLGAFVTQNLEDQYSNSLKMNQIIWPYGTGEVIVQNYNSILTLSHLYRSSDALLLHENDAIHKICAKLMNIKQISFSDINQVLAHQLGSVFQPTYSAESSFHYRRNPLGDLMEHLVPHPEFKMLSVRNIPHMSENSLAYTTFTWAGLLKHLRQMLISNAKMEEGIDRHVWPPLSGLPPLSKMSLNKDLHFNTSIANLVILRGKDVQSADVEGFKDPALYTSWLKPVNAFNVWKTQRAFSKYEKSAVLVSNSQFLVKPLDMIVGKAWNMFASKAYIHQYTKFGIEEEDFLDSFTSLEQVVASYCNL
T1 sequence (Q9H9B1 whole entry): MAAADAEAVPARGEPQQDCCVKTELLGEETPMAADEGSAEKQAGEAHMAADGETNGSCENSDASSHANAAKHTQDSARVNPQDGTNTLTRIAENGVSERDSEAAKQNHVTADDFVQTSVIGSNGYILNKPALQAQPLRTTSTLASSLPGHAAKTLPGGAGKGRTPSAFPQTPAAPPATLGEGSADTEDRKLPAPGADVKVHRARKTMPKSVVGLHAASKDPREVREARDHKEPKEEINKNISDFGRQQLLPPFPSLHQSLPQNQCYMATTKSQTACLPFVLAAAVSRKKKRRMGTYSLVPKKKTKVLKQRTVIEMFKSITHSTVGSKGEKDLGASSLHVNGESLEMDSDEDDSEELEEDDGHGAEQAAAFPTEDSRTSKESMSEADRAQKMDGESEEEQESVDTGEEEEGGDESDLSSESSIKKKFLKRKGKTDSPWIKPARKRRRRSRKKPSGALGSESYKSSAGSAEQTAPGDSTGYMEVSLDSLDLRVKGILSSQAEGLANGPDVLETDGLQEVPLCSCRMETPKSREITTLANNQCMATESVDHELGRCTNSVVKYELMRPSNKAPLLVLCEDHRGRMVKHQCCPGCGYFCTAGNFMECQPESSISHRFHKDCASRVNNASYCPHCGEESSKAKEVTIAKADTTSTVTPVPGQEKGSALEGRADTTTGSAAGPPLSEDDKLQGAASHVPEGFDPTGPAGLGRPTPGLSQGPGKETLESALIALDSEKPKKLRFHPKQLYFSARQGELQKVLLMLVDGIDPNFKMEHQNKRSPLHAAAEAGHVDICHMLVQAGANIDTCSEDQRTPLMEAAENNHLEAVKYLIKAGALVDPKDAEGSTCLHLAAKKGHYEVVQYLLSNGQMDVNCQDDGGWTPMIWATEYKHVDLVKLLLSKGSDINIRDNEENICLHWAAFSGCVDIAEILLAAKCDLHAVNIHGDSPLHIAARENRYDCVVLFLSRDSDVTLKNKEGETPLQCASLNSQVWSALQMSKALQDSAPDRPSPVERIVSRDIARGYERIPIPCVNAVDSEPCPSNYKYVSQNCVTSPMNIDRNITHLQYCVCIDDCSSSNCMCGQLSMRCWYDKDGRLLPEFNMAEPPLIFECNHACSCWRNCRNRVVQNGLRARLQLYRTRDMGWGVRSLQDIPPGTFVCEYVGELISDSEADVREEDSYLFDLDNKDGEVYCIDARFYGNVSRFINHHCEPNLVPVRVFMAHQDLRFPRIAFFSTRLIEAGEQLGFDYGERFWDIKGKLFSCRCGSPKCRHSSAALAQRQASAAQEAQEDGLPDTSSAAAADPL
T5 sequence (P14923 whole entry): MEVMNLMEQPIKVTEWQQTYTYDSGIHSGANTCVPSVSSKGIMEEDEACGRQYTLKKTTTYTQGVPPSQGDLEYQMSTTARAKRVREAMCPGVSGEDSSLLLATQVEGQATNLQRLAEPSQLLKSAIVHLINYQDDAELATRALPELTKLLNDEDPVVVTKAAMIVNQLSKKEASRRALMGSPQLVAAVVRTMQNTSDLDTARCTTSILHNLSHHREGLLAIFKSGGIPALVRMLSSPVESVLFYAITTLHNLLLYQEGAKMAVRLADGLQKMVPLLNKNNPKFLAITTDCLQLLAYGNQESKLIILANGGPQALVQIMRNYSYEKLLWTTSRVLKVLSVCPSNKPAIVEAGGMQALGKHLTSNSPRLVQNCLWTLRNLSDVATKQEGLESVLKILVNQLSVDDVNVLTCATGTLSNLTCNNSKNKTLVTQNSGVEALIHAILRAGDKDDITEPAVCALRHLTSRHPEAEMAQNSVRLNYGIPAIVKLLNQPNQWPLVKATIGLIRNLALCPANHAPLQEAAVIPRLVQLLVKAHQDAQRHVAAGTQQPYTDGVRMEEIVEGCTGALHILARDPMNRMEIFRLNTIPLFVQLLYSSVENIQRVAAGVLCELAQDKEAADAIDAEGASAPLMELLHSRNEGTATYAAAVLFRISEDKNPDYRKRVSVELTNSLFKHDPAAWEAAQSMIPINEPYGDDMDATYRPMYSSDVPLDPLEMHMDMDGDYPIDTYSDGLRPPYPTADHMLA

Compound	competition for EHMT1 (GLP) binding to affinity matrix [1]	FC vs DMSO (log2 competition), PRCP [2]	FC vs DMSO (log2 competition), TUBD1 [3]	FC vs DMSO (log2 competition), CPSF6 [4]	FC vs DMSO (log2 competition), JUP [5]
COc1cc2c(NC3CCN(C(C)C)CC3)nc(C3CCCCC3)nc2cc1OCCCN1CCCC1 [UNC0638]	strong enrichment and competition	-2.542	-2.877	-1.787	-1.79
COc1cc2c(N(C)C3CCN(C(C)C)CC3)nc(C3CCCCC3)nc2cc1OCCCN1CCCC1 [UNC0737]	did not ablate binding	0.1604	-0.7809	-0.1868	-0.7174
